Source: US10145851B2, “Discovery and validation of cancer biomarkers using a protein analysis methodology to analyze specimens” (The Board of Trustees of the Leland Stanford Junior …, priority 2009, dated 2018)
Entries after “also recorded” stand apart in the source; their conditions may differ. Where a name gives a salt, the structure may show the parent alone.

Key:
[1] = test system: phosphorylation of STAT3/5; assay: NIA/FACS of tumor cells of lymphoma patients treated with atorvastatin; format: in vivo, human
From the text: FIG. 5A-5C. NIA detected decrease in oncoproteins upon treatment with biologic response modifying therapeutic agent. (FIG. 5A) Schematic for the use of NIA to assess proteomic changes in clinical tumor specimens. Patients undergo pretreatment tumor sampling at baseline and again after 8 d of treatment with atorvastatin. (FIG. 5B) NIA analysis of tumor cells for changes in pSTAT3 and pSTAT5. (FIG. 5C) NIA quantification of pSTAT3 and pSTAT5±s.e.m. Samples were run in triplicate.
Predicted pl's were calculated using Scansite.
Phosphorylation of STAT3/5 decreased in lymphoma patients treated with atorvastatin. Tumor cells were sampled from lymphoma patients day 1 and day 8 of atorvastatin treatment.

mouse model of lymphoma = details: associated with specific changes in oncoprotein signaling; cited from earlier work
[2] = test system: human leukemic cell line TF1; assay: NIA of TF1 cells before and after treatment with ON01910; format: cell-based
Protocol: Using a single antibody that recognizes both the phosphorylated and unphosphorylated isoforms of ERK, we can determine levels of each ERK isoform, and also percent phosphorylation of ERK. […] To determine if NIA can measure signaling changes during treatment with novel drugs, human leukemic cells were treated with a PLK-1 inhibitor, ON01910 (Onconova, Inc). […] MEK2 phosphorylation decreased by 20% after ON01910 treatment. […] Treatment with ON01910 altered phosphorylation of signaling proteins in TF1 cells.

K562 human CML cell line = assay: NIA of K562 CML cells treated with imatinib in vitro; format: cell-based; design: activated caspase-3 associated with apoptosis: dose or concentration left out as unconfirmed
Protocol: The NIA experiments were performed using a Firefly™ or CB1000™ instrument (Cell Biosciences). Briefly, for each capillary analysis, 4 nanoliters of 10 mg/ml lysate were diluted to 0.2 mg/ml in 200 nanoliters HNG-based lysis buffer [20 mM Hepes pH 7.5, 25 mM NaCl, 0.1%, 10% glycerol, Sigma Phosphatase Inhibitor Cocktail 1, Calbiochem Protease Inhibitor] or 200 nanoliters Bicine/CHAPS lysis buffer. 200 nanoliters sample mix containing internal pl standards were added. The Firefly system first performed a charge-based separation (isoelectric focusing) in a 5 cm long, 100 micron inner-diameter capillary. Predicted pl's were calculated using Scansite. Each sample was run on a panel of different pH gradients (3-10, 5-9) to optimize the resolution of different peak patterns. After separation and photo-activated in-capillary immobilization, proteins were detected with antibodies: MYC protein expression was detected using the C-19 rabbit polyclonal antibody that recognizes mouse and human MYC (Santa Cruz Biotechnology). BCL2 protein expression was detected using the clone 124 mouse monoclonal antibody that recognizes human BCL2 (Dako Laboratories). Total ERK1/2 protein expression was detected using a rabbit polyclonal antibody that recognizes mouse and human ERK1/2 (Upstate). Phospho-ERK 1/2 protein expression was detected using a mouse monoclonal antibody that recognizes both mouse and human pERK 1/2 (Cell Signaling). Additional antibodies used were: activated caspase 3 (Cell Signaling), MEK1 (Upstate), pMEK1 (Novus), MEK2 (Abcam), pSTAT3 (Cell Signaling), pSTAT5 (Cell Signaling), pJNK (Cell Signaling), HSP70 (Novus).
Quantitation of the peaks is performed using peak analysis software. The start and end of each peak, and a flat baseline were manually selected. The area of each peak was calculated by dropping verticals to the baseline at the peak start and end, and summing the area between the start and endpoints. […] The areas under different peaks within a single tracing represented various ERK isoforms. […]

[3] = TF1 cells after 24 hr of treatment

CC(C)c1c(C(=O)Nc2ccccc2)c(-c2ccccc2)c(-c2ccc(F)cc2)n1CC[C@@H](O)C[C@@H](O)CC(=O)O [atorvastatin]
phosphorylation of STAT3/5 ([1]; after eight days of treatment, NIA): detectable decreases; also recorded: decreased
STAT3 and STAT5 phosphorylation in CD20 positive cells ([1]; day 1 and day 8 of treatment, NIA and FACS): dramatic decrease
tumor regression (mouse model of lymphoma): causes tumor regression

COc1cc(OC)c(/C=C/S(=O)(=O)Cc2ccc(OC)c(NCC(=O)O)c2)c(OC)c1 [ON01910]
MEK2 phosphorylation decrease ([2]; TF1 cell line after ON01910 treatment): 20%
phosphorylation of JNK [2, 3]: increased phosphorylation
phosphorylation of MEK2 [2, 3]: decreased phosphorylation

Cc1ccc(NC(=O)c2ccc(CN3CCN(C)CC3)cc2)cc1Nc1nccc(-c2cccnc2)n1 [imatinib, imatinib mesylate]
phosphorylation of STAT3/5, JNK, MEK1 and MEK2 (K562 human CML cell line; K562, imatinib final concentration 10 mM in vitro, 0 h, 4 h and 20 h): changes in phosphorylation
activated caspase-3 associated with apoptosis (K562 human CML cell line; K562, imatinib in vitro, 0 h, 4 h and 20 h): expected increase
specific ERK2 phospho-isomer (peak 3) (K562 human CML cell line; K562, imatinib in vitro, 24 hours): decrease; also recorded: change in phospho-ERK
